Tests used:
PAK1 = target: T1, PAK1 (Homo sapiens, UniProt Q13153); test: HotSpot kinase assay; assay type: biochemical; conditions: read-out: % Enzyme Activity (relative to DMSO controls)
T1 construct: purchased Reaction Biology Corporation

RIPK5 = target: T2, RIPK5 (Homo sapiens, UniProt Q6XUX3); test: HotSpot kinase assay; assay type: biochemical; conditions: read-out: % Enzyme Activity (relative to DMSO controls)
T2 construct: purchased Reaction Biology Corporation

RSK4 = target: T3, RSK4 (Homo sapiens, UniProt Q9UK32); test: HotSpot kinase assay; assay type: biochemical; conditions: read-out: % Enzyme Activity (relative to DMSO controls)
T3 construct: purchased Reaction Biology Corporation

PKAcg = target: T4, PKAcg (Homo sapiens, UniProt P22612); test: HotSpot kinase assay; assay type: biochemical; conditions: read-out: % Enzyme Activity (relative to DMSO controls)
T4 construct: purchased Reaction Biology Corporation

STK32C/YANK3 = target: T5, STK32C/YANK3 (Homo sapiens, UniProt Q86UX6); test: HotSpot kinase assay; assay type: biochemical; conditions: read-out: % Enzyme Activity (relative to DMSO controls)
T5 construct: purchased Reaction Biology Corporation

DAPK2 = target: T6, DAPK2 (Homo sapiens, UniProt Q9UIK4); test: HotSpot kinase assay; assay type: biochemical; conditions: read-out: % Enzyme Activity (relative to DMSO controls)
T6 construct: purchased Reaction Biology Corporation
T6 sequence (Q9UIK4 whole entry): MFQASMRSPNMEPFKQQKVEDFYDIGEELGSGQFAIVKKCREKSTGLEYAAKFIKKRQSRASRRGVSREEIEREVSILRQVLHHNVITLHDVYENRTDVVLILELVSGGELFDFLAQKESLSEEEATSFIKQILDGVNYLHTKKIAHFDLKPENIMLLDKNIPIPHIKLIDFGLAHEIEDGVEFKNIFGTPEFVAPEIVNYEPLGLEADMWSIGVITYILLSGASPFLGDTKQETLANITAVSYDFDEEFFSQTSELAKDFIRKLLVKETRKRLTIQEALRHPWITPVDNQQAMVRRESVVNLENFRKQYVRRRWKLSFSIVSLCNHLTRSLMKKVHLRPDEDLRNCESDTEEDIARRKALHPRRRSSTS

PKCtheta = target: T7, PKCtheta (Homo sapiens, UniProt Q04759); test: HotSpot kinase assay; assay type: biochemical; conditions: read-out: % Enzyme Activity (relative to DMSO controls)
T7 construct: purchased Reaction Biology Corporation

BLK = target: T8, BLK (Homo sapiens, UniProt P51451); test: HotSpot kinase assay; assay type: biochemical; conditions: read-out: % Enzyme Activity (relative to DMSO controls)
T8 construct: purchased Reaction Biology Corporation

TLK2 = target: T9, TLK2 (Homo sapiens, UniProt Q86UE8); test: HotSpot kinase assay; assay type: biochemical; conditions: read-out: % Enzyme Activity (relative to DMSO controls)
T9 construct: purchased Reaction Biology Corporation

GLK/MAP4K3 = target: T10, GLK/MAP4K3 (Homo sapiens, UniProt Q8IVH8); test: HotSpot kinase assay; assay type: biochemical; conditions: read-out: % Enzyme Activity (relative to DMSO controls)
T10 construct: purchased Reaction Biology Corporation

AKT2 = target: T11, AKT2 (Homo sapiens, UniProt P31751); test: biochemical
T11 construct: purchased Reaction Biology Corporation
T11 sequence (P31751 whole entry): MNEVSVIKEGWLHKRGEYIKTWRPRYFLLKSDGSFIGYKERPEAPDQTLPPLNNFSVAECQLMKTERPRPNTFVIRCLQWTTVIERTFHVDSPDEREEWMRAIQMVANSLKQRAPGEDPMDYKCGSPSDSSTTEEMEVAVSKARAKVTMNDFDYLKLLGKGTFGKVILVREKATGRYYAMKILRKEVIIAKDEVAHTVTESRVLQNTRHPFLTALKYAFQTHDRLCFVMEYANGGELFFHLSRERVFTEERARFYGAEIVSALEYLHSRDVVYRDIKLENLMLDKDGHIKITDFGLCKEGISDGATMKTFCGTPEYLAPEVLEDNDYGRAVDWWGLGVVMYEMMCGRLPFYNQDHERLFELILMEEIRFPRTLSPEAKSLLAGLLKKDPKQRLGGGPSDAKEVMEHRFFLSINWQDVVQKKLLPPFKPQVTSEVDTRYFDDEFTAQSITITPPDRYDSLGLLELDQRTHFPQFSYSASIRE

EPHA7 = target: T12, EPHA7 (Homo sapiens, UniProt Q15375); test: HotSpot kinase assay; assay type: biochemical; conditions: read-out: % Enzyme Activity (relative to DMSO controls)
T12 construct: purchased Reaction Biology Corporation

SGK3/SGKL = target: T13, SGK3/SGKL (Homo sapiens, UniProt Q96BR1); test: HotSpot kinase assay; assay type: biochemical; conditions: read-out: % Enzyme Activity (relative to DMSO controls)
T13 construct: purchased Reaction Biology Corporation
T13 sequence (Q96BR1 whole entry): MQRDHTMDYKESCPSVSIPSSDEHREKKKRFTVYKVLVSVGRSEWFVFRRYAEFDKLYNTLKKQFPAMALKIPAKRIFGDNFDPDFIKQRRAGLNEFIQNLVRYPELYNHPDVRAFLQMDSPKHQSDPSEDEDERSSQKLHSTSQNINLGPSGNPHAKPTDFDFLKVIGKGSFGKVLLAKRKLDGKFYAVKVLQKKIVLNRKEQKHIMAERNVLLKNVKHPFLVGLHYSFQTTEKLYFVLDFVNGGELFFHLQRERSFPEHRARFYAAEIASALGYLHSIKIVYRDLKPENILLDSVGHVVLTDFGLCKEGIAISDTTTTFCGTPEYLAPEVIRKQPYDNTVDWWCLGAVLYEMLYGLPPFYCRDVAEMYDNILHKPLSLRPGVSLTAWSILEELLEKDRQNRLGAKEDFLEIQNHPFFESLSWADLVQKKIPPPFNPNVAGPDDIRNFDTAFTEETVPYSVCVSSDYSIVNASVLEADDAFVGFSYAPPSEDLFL

EPHB2 = target: T14, EPHB2 (Homo sapiens, UniProt P29323); test: HotSpot kinase assay; assay type: biochemical; conditions: read-out: % Enzyme Activity (relative to DMSO controls)
T14 construct: purchased Reaction Biology Corporation
T14 sequence (P29323 19-1055): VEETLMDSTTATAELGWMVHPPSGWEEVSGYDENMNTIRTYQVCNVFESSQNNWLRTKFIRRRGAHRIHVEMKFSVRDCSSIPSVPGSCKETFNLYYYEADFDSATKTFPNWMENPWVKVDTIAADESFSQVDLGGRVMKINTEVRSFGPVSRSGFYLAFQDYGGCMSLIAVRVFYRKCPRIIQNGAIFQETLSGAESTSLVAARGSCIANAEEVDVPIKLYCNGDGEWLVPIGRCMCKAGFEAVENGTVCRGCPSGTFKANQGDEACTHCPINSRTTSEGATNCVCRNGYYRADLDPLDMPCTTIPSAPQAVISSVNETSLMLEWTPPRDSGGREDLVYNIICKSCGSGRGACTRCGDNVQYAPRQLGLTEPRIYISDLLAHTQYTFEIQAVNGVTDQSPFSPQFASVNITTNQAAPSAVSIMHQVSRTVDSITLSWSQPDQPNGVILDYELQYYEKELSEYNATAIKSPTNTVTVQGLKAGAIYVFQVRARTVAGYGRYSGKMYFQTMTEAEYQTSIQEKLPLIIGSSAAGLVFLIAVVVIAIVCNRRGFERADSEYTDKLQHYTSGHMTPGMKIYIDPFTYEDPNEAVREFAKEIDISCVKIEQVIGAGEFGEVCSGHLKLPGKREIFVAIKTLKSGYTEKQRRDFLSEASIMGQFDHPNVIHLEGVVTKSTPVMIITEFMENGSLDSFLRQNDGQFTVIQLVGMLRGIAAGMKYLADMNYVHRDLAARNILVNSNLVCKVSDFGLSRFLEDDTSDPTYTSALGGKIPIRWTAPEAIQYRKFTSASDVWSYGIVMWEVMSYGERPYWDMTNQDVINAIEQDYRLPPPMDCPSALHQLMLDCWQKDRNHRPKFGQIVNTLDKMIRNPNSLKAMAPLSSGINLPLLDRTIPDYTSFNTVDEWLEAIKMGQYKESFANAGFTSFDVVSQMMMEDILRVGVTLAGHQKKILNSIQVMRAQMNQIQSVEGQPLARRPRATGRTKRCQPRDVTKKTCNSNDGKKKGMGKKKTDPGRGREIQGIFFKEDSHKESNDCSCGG

ALK2/ACVR1 = target: T15, ALK2/ACVR1 (Homo sapiens, UniProt Q04771); test: HotSpot kinase assay; assay type: biochemical; conditions: read-out: % Enzyme Activity (relative to DMSO controls)
T15 construct: purchased Reaction Biology Corporation

RSK2 = target: T16, RSK2 (Homo sapiens, UniProt P51812); test: HotSpot kinase assay; assay type: biochemical; conditions: read-out: % Enzyme Activity (relative to DMSO controls)
T16 construct: purchased Reaction Biology Corporation

MSK2/RPS6KA4 = target: T17, MSK2/RPS6KA4 (Homo sapiens, UniProt O75676); test: HotSpot kinase assay; assay type: biochemical; conditions: read-out: % Enzyme Activity (relative to DMSO controls)
T17 construct: purchased Reaction Biology Corporation

PRKX = target: T18, PRKX (Homo sapiens, UniProt P51817); test: HotSpot kinase assay; assay type: biochemical; conditions: read-out: % Enzyme Activity (relative to DMSO controls)
T18 construct: purchased Reaction Biology Corporation

IRAK4 = target: T19, IRAK4 (Homo sapiens, UniProt Q9NWZ3); test: HotSpot kinase assay; assay type: biochemical; conditions: read-out: % Enzyme Activity (relative to DMSO controls)
T19 construct: purchased Reaction Biology Corporation

IKKa/CHUK = target: T20, IKKa/CHUK (Homo sapiens, UniProt O15111); test: HotSpot kinase assay; assay type: biochemical; conditions: read-out: % Enzyme Activity (relative to DMSO controls)
T20 construct: purchased Reaction Biology Corporation

STK33 = target: T21, STK33 (Homo sapiens, UniProt Q9BYT3); test: HotSpot kinase assay; assay type: biochemical; conditions: read-out: % Enzyme Activity (relative to DMSO controls)
T21 construct: purchased Reaction Biology Corporation
T21 sequence (Q9BYT3 whole entry): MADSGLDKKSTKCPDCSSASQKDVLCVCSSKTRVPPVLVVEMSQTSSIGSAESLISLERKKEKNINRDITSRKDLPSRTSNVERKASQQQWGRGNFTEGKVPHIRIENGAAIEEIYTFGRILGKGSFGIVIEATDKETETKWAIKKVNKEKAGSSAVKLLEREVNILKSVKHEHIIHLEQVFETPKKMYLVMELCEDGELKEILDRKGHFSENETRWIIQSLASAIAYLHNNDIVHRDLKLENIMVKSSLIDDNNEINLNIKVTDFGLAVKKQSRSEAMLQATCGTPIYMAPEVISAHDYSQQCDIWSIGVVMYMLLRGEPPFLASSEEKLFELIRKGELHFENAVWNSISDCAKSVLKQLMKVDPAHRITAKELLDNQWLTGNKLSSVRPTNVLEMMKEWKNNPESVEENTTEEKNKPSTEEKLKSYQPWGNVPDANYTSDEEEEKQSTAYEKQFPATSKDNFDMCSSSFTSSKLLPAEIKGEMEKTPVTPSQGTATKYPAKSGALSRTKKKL

NIM1 = target: T22, NIM1 (Homo sapiens, UniProt Q8IY84); test: HotSpot kinase assay; assay type: biochemical; conditions: read-out: % Enzyme Activity (relative to DMSO controls)
T22 construct: purchased Reaction Biology Corporation

RET = target: T23, RET (Homo sapiens, UniProt P07949); test: HotSpot kinase assay; assay type: biochemical; conditions: read-out: % Enzyme Activity (relative to DMSO controls)
T23 construct: purchased Reaction Biology Corporation

CDK1/cyclin E = target: T24, CDK1/cyclin E (Homo sapiens, UniProt P06493); test: HotSpot kinase assay; assay type: biochemical; conditions: read-out: % Enzyme Activity (relative to DMSO controls)
T24 construct: purchased Reaction Biology Corporation

PIM2 = target: T25, PIM2 (Homo sapiens, UniProt Q9P1W9); test: HotSpot kinase assay; assay type: biochemical; conditions: read-out: % Enzyme Activity (relative to DMSO controls)
T25 construct: purchased Reaction Biology Corporation

LCK2/ICK = target: T26, LCK2/ICK (Homo sapiens, UniProt Q9UPZ9); test: HotSpot kinase assay; assay type: biochemical; conditions: read-out: % Enzyme Activity (relative to DMSO controls)
T26 construct: purchased Reaction Biology Corporation

CDK5/p35 = target: T27, CDK5/p35 (Homo sapiens, UniProt Q00535); test: HotSpot kinase assay; assay type: biochemical; conditions: read-out: % Enzyme Activity (relative to DMSO controls)
T27 construct: purchased Reaction Biology Corporation

SGK1 = target: T28, SGK1 (Homo sapiens, UniProt O00141); test: HotSpot kinase assay; assay type: biochemical; conditions: read-out: % Enzyme Activity (relative to DMSO controls)
T28 construct: purchased Reaction Biology Corporation

RAF1 = target: T29, RAF1 (Homo sapiens, UniProt P04049); test: HotSpot kinase assay; assay type: biochemical; conditions: read-out: % Enzyme Activity (relative to DMSO controls)
T29 construct: purchased Reaction Biology Corporation

HaCat cells = test: western blot for cleaved PARP-1 or cleaved caspase 8; conditions: 0.1, 1, or 10 µM, 8 h
CDK17/cyclin Y (PCTK2) = target: T30, CDK17/cyclin Y (PCTK2) (Homo sapiens, UniProt Q00537); test: HotSpot kinase assay; assay type: biochemical; conditions: read-out: % Enzyme Activity (relative to DMSO controls)
T30 construct: purchased Reaction Biology Corporation

AMPK(A2/B2/G1) = target: T31, AMPK(A2/B2/G1) (Homo sapiens, UniProt P54646); test: HotSpot kinase assay; assay type: biochemical; conditions: 10µM; read-out: % Enzyme Activity (relative to DMSO controls)
T31 construct: purchased Reaction Biology Corporation
Method: (§1) Kinase activity were performed by Reaction Biology Corporation using the “HotSpot” assay platform modified from the published procedure.

ERK1 = target: T32, ERK1 (Homo sapiens, UniProt P27361); test: HotSpot kinase assay; assay type: biochemical; conditions: 10µM; read-out: % Enzyme Activity (relative to DMSO controls)
T32 construct: purchased Reaction Biology Corporation
Method: as §1

AMPK (A2/B1/G3) = target: T33, AMPK (A2/B1/G3) (Homo sapiens, UniProt P54646); test: HotSpot kinase assay; assay type: biochemical; conditions: 10µM; read-out: % Enzyme Activity (relative to DMSO controls)
T33 construct: purchased Reaction Biology Corporation
Method: as §1

VRK2 = target: T34, VRK2 (Homo sapiens, UniProt Q86Y07); test: HotSpot kinase assay; assay type: biochemical; conditions: 10µM; read-out: % Enzyme Activity (relative to DMSO controls)
T34 construct: purchased Reaction Biology Corporation
T34 sequence (Q86Y07 whole entry): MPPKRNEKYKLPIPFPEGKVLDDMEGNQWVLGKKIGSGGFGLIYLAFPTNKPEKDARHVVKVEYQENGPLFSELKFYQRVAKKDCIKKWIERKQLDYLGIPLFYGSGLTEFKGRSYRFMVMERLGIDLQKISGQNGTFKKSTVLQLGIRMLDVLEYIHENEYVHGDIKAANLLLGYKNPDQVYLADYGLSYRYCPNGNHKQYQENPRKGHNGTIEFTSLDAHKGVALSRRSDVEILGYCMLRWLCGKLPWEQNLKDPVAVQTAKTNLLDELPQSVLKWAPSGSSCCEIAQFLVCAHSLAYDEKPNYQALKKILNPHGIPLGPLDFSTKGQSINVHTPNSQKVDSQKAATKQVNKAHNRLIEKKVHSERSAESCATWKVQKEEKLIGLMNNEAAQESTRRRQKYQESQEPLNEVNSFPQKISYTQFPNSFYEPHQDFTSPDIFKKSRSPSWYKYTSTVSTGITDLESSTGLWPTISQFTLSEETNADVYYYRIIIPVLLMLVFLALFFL
Method: as §1

CK2a = target: T35, CK2a (Homo sapiens, UniProt P68400); test: HotSpot kinase assay; assay type: biochemical; conditions: 10µM; read-out: % Enzyme Activity (relative to DMSO controls)
T35 construct: purchased Reaction Biology Corporation
Method: as §1

MSK1/RPS6KA5 = target: T36, MSK1/RPS6KA5 (Homo sapiens, UniProt O75582); test: HotSpot kinase assay; assay type: biochemical; conditions: read-out: % Enzyme Activity (relative to DMSO controls)
T36 construct: purchased Reaction Biology Corporation

in vitro = conditions: dog, MDCK-MDR1
IR = target: T37, IR (Homo sapiens, UniProt P06213); test: biochemical
T37 construct: purchased Reaction Biology Corporation
T37 sequence (P06213 980-1382 limits assumed): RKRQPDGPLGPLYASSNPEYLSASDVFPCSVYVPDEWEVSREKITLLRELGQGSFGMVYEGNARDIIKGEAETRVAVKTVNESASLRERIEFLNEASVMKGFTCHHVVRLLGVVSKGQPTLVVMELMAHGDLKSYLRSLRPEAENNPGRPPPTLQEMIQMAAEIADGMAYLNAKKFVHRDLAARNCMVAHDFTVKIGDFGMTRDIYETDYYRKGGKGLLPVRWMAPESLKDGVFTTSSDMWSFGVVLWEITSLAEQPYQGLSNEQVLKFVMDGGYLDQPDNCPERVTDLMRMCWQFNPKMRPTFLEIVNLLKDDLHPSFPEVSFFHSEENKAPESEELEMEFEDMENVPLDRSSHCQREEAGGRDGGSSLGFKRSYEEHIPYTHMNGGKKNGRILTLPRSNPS

CAMKK1 = target: T38, CAMKK1 (Homo sapiens, UniProt Q8N5S9); test: biochemical; conditions: read-out: % Enzyme Activity (relative to DMSO controls)
T38 construct: purchased Reaction Biology Corporation
T38 sequence (Q8N5S9 whole entry): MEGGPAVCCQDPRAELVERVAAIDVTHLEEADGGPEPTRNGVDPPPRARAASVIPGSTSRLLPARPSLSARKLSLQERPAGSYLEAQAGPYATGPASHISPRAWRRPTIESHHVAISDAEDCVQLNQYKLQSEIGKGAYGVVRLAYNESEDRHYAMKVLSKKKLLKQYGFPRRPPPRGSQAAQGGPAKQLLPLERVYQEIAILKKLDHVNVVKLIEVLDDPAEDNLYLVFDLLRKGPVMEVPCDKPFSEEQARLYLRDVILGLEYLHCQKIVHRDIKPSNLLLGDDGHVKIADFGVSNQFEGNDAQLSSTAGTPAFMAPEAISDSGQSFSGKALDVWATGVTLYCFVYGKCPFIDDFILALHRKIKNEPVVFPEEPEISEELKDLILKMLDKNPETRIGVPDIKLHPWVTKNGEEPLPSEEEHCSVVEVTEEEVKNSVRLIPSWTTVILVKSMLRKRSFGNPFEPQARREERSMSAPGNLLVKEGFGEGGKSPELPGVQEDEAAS

BRK = target: T39, BRK (Homo sapiens, UniProt Q13882); test: HotSpot kinase assay; assay type: biochemical; conditions: read-out: % Enzyme Activity (relative to DMSO controls)
T39 construct: purchased Reaction Biology Corporation

[1] = read-out: % Enzyme Activity (relative to DMSO controls), 10µM

T1 sequence (Q13153 whole entry): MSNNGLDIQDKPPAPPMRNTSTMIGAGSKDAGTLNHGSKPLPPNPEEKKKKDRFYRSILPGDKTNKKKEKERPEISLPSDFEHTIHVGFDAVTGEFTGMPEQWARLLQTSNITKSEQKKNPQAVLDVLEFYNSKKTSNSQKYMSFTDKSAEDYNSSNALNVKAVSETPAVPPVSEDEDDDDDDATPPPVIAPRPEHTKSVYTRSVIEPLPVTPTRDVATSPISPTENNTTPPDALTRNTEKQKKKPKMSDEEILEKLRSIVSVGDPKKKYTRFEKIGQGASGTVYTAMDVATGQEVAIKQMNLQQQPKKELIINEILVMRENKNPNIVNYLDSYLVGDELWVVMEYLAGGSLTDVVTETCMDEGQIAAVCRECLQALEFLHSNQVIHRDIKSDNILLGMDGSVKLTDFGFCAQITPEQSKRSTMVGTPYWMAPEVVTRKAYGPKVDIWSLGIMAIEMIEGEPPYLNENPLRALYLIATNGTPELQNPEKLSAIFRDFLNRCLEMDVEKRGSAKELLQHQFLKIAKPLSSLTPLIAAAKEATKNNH

CO[C@@H]1[C@H](N(C)C(=O)CCC(=O)NCc2cn(CCCS(=O)(=O)O)nn2)C[C@H]2O[C@]1(C)n1c3ccccc3c3c4c(c5c6ccccc6n2c5c31)C(=O)NC4 [CIMSS]
remaining activity at 10 µM (PAK1): 8.08%
remaining activity at 10 µM (RIPK5): 22.7%
remaining activity at 10 µM (RSK4): 6.64%
remaining activity at 10 µM (PKAcg): 2.07%
remaining activity at 10 µM (STK32C/YANK3): 20.5%
remaining activity at 10 µM (DAPK2): 11.3%
remaining activity at 10 µM (PKCtheta): 7.08%
remaining activity at 10 µM (BLK): 0.34%
remaining activity at 10 µM (TLK2): 67%
remaining activity at 10 µM (GLK/MAP4K3): 0.96%
IC50 (AKT2; Supplementary Table 1, read-out: IC50 (Molar concentration)): 1000 nM
remaining activity at 10 µM (AKT2; [1]): 19.1%
inhibition at 10 µM (AKT2; read-out: inhibition of Akt2): > 75%
remaining activity at 10 µM (EPHA7): 6.91%
remaining activity at 10 µM (SGK3/SGKL): 59.6%
remaining activity at 10 µM (EPHB2): 28.5%
remaining activity at 10 µM (ALK2/ACVR1): 72.7%
remaining activity at 10 µM (RSK2): 1.69%
remaining activity at 10 µM (MSK2/RPS6KA4): 2.11%
remaining activity at 10 µM (PRKX): 9.56%
remaining activity at 10 µM (IRAK4): 6.48%
remaining activity at 10 µM (IKKa/CHUK): 31.6%
remaining activity at 10 µM (STK33): 9.17%
remaining activity at 10 µM (NIM1): 46.6%
remaining activity at 10 µM (RET): 2.1%
remaining activity at 10 µM (CDK1/cyclin E): 18%
remaining activity at 10 µM (PIM2): 21.3%
remaining activity at 10 µM (LCK2/ICK): 4.57%
remaining activity at 10 µM (CDK5/p35): 8.78%
remaining activity at 10 µM (SGK1): 13.4%
remaining activity at 10 µM (RAF1): 111%
PARP-1 or caspase 8 cleavage (HaCat cells): did not induce
remaining activity at 10 µM (CDK17/cyclin Y (PCTK2)): 54.2%
remaining activity at 10 µM (AMPK(A2/B2/G1)): 0.34%
remaining activity at 10 µM (ERK1): 91.8%
remaining activity at 10 µM (AMPK (A2/B1/G3)): 0.67%
remaining activity at 10 µM (VRK2): 81.8%
remaining activity at 10 µM (CK2a): 71.4%
remaining activity at 10 µM (MSK1/RPS6KA5): 1.53%
Papp at 1 h, 5 μM (in vitro): 0.1 ×10⁻⁶ cm/s
IC50 (IR; Supplementary Table 1, Insulin Receptor, read-out: IC50 (Molar concentration)): 803 nM
remaining activity at 10 µM (IR; [1]): 15.8%
remaining activity at 10 µM (CAMKK1): 1%
remaining activity at 10 µM (BRK): 25.5%

From paper PMC9569420 (Communications Biology, 2022)
